Entries after “also recorded” stand apart in the source; their conditions may differ.
What was measured:
MDA-MB-231 cells = test: Mitotracker Red CMXROS fluorescent microscopy; format: cell-based, human; conditions: 30 μM, 24-hour exposure
Method: (§1) To evaluate the effects on mitochondrial morphology and vitality, Mitotracker Red CMXROS (MTR) fluorescence imaging experiments were employed. […] Furthermore, differential interference contrast (DIC) microscope images illustrate substantial membrane blebbing and vesiculation in compound treated cultures (Fig. 6).
(§2) MDA-MB-231 or WiDr cells (5 × 10^4 cells/mL) were seeded in glass-bottom dishes (MatTek Corp, part no. P35G010C) and incubated for 48 hours. Test compound (30 μM) was added and cells were again incubated for 24 hours prior to fluorescent microscopic imaging. In some cultures, MitoTracker Red CMXROS (Invitrogen, M7512, 100 nM) was added 15 min prior to imaging. The growth media was removed and replaced with 5% FBS in 1X PBS for imaging. Cells were then examined and photographed using a Nikon TE2000 epifluorescent microscope and camera. The images shown are representative of at least 3 fields of view of three separate experiments.

WiDr cells = test: Mitotracker Red CMXROS fluorescent microscopy; format: cell-based, human; conditions: 30 μM, 24-hour exposure
Method: as §1, §2

MCT1 = target: T1, MCT1 (Rattus norvegicus, UniProt P53987); test: MCT1 inhibition assay via L-[14C]-lactate uptake in RBE4 cells; format: cell-based; conditions: L-[14C]-lactate uptake, MCT1 expressing RBE4 cell line; average ± SEM of three separate experiments; read-out: MCT1 IC50
T1 construct: using an L-[^14C]-lactate study on the MCT1 expressing RBE4 cell line; endogenous in cells; host or cells: RBE4 (rat brain endothelial 4) cells, a gift from F. Roux
T1 sequence (P53987 1-494): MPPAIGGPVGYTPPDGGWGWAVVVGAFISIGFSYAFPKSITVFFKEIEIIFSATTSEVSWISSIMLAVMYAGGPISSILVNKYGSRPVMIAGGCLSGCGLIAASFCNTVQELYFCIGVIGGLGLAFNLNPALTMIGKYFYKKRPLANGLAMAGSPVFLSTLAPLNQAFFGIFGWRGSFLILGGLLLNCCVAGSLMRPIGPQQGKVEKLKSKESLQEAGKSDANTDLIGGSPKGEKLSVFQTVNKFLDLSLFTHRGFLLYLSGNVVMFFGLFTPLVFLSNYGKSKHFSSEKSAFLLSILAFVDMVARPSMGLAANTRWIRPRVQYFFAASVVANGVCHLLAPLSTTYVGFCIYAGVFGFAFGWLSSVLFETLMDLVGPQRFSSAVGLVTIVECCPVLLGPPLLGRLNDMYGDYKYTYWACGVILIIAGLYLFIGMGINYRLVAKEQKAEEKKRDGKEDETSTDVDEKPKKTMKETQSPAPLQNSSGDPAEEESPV

MCF7 cell line = test: MTT cell proliferation inhibition assay; conditions: Homo sapiens, MCF7, read-out: MTT IC50
Method: (§5) Human triple-negative breast cancer MDA-MB-231 cells (ATCC) were grown in DMEM supplemented with 10% FBS (Atlanta Biologicals) and penicillin-streptomycin (50U/ml, 50 µg/ml, Invitrogen). Human colorectal adenocarcinoma WiDr cells (ATCC) were cultured in MEM medium supplemented with 10% FBS and penicillin-streptomycin. […] Murine metastatic breast cancer 4T1 cells were grown in RPMI-1640 supplemented with 10% FBS and penicillin-streptomycin. Human estrogen receptor positive breast cancer MCF7 cells (Masonic Cancer Center, University of Minnesota) were grown in MEM supplemented with 6% FBS, EGF (0.01 µg/ml), NEAA, HDC (1 µg/ml), insulin (10 µg/ml), HEPES (12 mM) and sodium pyruvate (1 mM).
(§6) Cell proliferation inhibition was evaluated using 3-(4,5-dimethylthiazol-2-yl)-2,5-diphenyl tetrazolium bromide (MTT) assay as reported previously[19].

[1] = tested on: MCF7, 4T1, WiDr, and MDA-MB-231 cell lines; test: MTT cell proliferation inhibition, all cell lines tested; format: cell-based; conditions: read-out: MTT IC50 values, span over all the cell lines tested
Method: as §6

4T1 cell line = test: MTT cell proliferation inhibition assay; conditions: Mus musculus, 4T1, read-out: MTT IC50
Method: as §5, §6

[2] = tested on: MCT1 expressing WiDr cell line; test: Seahorse XFe96 mitochondrial stress test (OCR); format: cell-based, human; conditions: 30 µM, vs DMSO control
Method: (§3) To assess mitochondrial stress, four parameters including maximal respiration, proton leak, ATP production, and spare respiratory capacity were measured. ATP production via OxPhos is dependent on mitochondrial integrity and can be measured directly via the oxygen consumption rate (OCR). Time-course OCR plots from WiDr and MDA-MB-231 cells were used to calculate 2a and 2b treatment-induced changes in specified parameters following the addition of various mitochondrial targeting agents (Fig. 5A,B). […] Spare respiratory capacity is a value that is not directly linked to mitochondrial damage but represents the cells ability to respond to rapid ATP demands.
(§4) 20,000 cells/well were plated in 96-well Seahorse plates (Agilent, part no. 101085-004) and incubated 16–24 hours at 37 °C at 5% CO2. Flux pack sensors (Agilent, part no. 102416-100) were hydrated with XF calibrant solution (Agilent, part no. 100840-000) overnight at 37 °C in a non-CO2 incubator. The serum free assay media was prepared from Seahorse base medium (Agilent, part no. 102353-100) enriched with glutamine (1 mM) and sodium pyruvate (1 mM). The pH of the media was adjusted to 7.4. For glycolysis stress test the serum free assay media was used. For the mitochondrial stress test glucose (10 mM) was added to make an enriched serum free assay media. For both stress tests an 8X stock concentration of test compounds in their respective media was prepared for microplate injections in port A. Stock solutions of glucose (90 mM), oligomycin (10 μM), and 2-deoxyglucose (Chem Impex, 550 mM) were prepared such that their final working concentrations are 10 mM, 1 μM and 50 mM, respectively, for glycolysis stress test. For mitochondrial stress test, stock solutions of oligomycin (9 µM), FCCP (2.5–10 µM, cell line dependent), rotenone + antimycin A (5.5 µM) were prepared such that their final concentrations were 1 µM, 0.25–1 µM, and 0.5 µM, respectively in the enriched test media. Under glycolytic stress test, the cells were treated with test compounds, followed by the addition of glucose, oligomycin and 2-deoxyglucose at 14.29, 33.8, 53.35, 72.87 minutes, respectively. Under mitochondrial stress test, cells were treated with test compounds, followed by the addition of oligomycin, FCCP, and rotenone + antimycin A, at 14.29, 33.8, 53.35, 72.87 minutes, respectively. Extracellular acidification rates (ECAR) and oxygen consumption rates (OCR) were recorded in real-time for glycolysis and mitochondrial stress tests, respectively, using a Seahorse XFe96® analyzer (Agilent). The parameters related to glycolytic and mitochondrial functions were calculated utilizing the Wave 2.4.0 software (Agilent). ATP rate assay experiment was performed using manufactures (Agilent) protocol, and respective mitochondrial and glycolytic ATP rates were normalized to protein (BCA assay) and calculated using Wave 2.4.0 software.

[3] = tested on: MCT4 expressing MDA-MB-231 cell line; test: Seahorse XFe96 mitochondrial stress test (OCR); format: cell-based, human; conditions: 30 µM, MDA-MB-231, vs DMSO control
Method: as §3, §4

MDA-MB-231 cell line = test: MTT cell proliferation inhibition assay; conditions: Homo sapiens, MDA-MB-231, read-out: MTT IC50
Method: as §5, §6

WiDr cell line = test: MTT cell proliferation inhibition assay; conditions: Homo sapiens, read-out: MTT IC50
Method: as §5, §6

CC(C)(C)[Si](Oc1ccc(/C=C(\C#N)C(=O)O)cc1)(c1ccccc1)c1ccccc1 [2a]
MTR fluorescence / mitochondrial morphology (MDA-MB-231 cells): more diffuse and dim general cytoplasmic fluorescence; also recorded: substantial redistribution of MTR | MTR fluorescence / mitochondrial morphology (WiDr cells): more diffuse and dim general cytoplasmic fluorescence; also recorded: substantial redistribution of MTR | IC50 (MCT1): 0.408 ± 0.005 µM | IC50 (MCF7 cell line): 39 ± 3 µM | IC50 [1]: 6 to 93 µM | IC50 (4T1 cell line): 56 ± 1 µM | FCCP induced maximal respiration (OCR) [2]: significantly decreased | oxygen consumption for mitochondrial ATP production (OCR) [2]: significantly decreased | proton leak (OCR) [2]: significant increase | spare respiratory capacity (OCR) [2]: significant decrease | FCCP induced maximal respiration (OCR) [3]: significantly decreased | oxygen consumption for mitochondrial ATP production (OCR) [3]: significantly decreased | proton leak (OCR) [3]: significant increase | spare respiratory capacity (OCR) [3]: significant decrease | IC50 (MDA-MB-231 cell line): 93 µM | IC50 (WiDr cell line): 41 ± 2 µM

CC(C)(C)[Si](OCCOc1ccc(/C=C(\C#N)C(=O)O)cc1)(c1ccccc1)c1ccccc1 [2b]
IC50 (MCT1): 0.097 ± 0.007 µM | IC50 (MCF7 cell line): 35 ± 3 µM | IC50 [1]: 6 to 93 µM | IC50 (4T1 cell line): 22 ± 1 µM | FCCP induced maximal respiration (OCR) [2]: significantly decreased | oxygen consumption for mitochondrial ATP production (OCR) [2]: significantly decreased | proton leak (OCR) [2]: significant increase | spare respiratory capacity (OCR) [2]: significant decrease | FCCP induced maximal respiration (OCR) [3]: significantly decreased | oxygen consumption for mitochondrial ATP production (OCR) [3]: significantly decreased | proton leak (OCR) [3]: significant increase | spare respiratory capacity (OCR) [3]: significant decrease | IC50 (MDA-MB-231 cell line): 71 ± 1 µM | IC50 (WiDr cell line): 6 ± 1 µM

Reference: article PMC6892925, “Development of Novel Silyl Cyanocinnamic Acid Derivatives as Metabolic Plasticity Inhibitors for Cancer Treatment” (Scientific Reports, 2019)
